Reference: ChEMBL document CHEMBL5252618, “Discovery and Biosynthesis of Imidazolium Antibiotics from the Probiotic Bacillus licheniformis” (J Nat Prod, 2023)
“And” between values parts separate entries of the source, which are not always exact repeats. Equal entries are not always repeated. The source made the active and inactive calls. The calls are words filed in the database; no cut-off is given here.

Columns and labels:
[1] = system: HCT-116; assay: Cytotoxicity against human HCT-116 cells at 31.25 to 500 uM incubated for 24 hrs by CellTiter96 aqueous one solution based assay; type: functional, cell-based; settings: dose 31.25-500 µM
[2] = Cytotoxicity against human Chang liver cells at 31.25 to 500 uM incubated for 24 hrs by CellTiter96 aqueous one solution based assay; type: toxicity, cell-based; settings: dose 31.25-500 µM
[3] = system: HepG2; assay: Cytotoxicity against human HepG2 cells at 31.25 to 500 uM incubated for 24 hrs by CellTiter96 aqueous one solution based assay; type: functional, cell-based; settings: dose 31.25-500 µM
[4] = system: NIH3T3; assay: Cytotoxicity against mouse NIH3T3 cells at 31.25 to 500 uM incubated for 24 hrs by CellTiter96 aqueous one solution based assay; type: toxicity, cell-based; settings: nih3t3, 24 h, dose 31.25-500 µM
[5] = system: Staphylococcus aureus; assay: Antibacterial activity against methicillin-resistant Staphylococcus aureus USA300 assessed as bacterial growth inhibition incubated for overnight by visual analysis; type: functional
[6] = system: Escherichia coli; assay: Antibacterial activity against Escherichia coli MG1655 assessed as bacterial growth inhibition incubated for overnight by visual analysis; type: functional
[7] = system: HT-1080; assay: Cytotoxicity against human HT-1080 cells at 31.25 to 500 uM incubated for 24 hrs by CellTiter96 aqueous one solution based assay; type: functional, cell-based; settings: dose 31.25-500 µM
[8] = system: WI-38; assay: Cytotoxicity against human WI-38 cells at 31.25 to 500 uM incubated for 24 hrs by CellTiter96 aqueous one solution based assay; type: toxicity, cell-based; settings: wi-38, 24 h, dose 31.25-500 µM
[9] = system: A549; assay: Cytotoxicity against human A549 cells at 31.25 to 500 uM incubated for 24 hrs by CellTiter96 aqueous one solution based assay; type: functional, cell-based; settings: dose 31.25-500 µM
[10] = system: Brevibacterium epidermidis; assay: Antibacterial activity against Brevibacterium epidermidis ATCC35514 assessed as bacterial growth inhibition incubated for overnight by visual analysis; type: functional
[11] = system: Lacticaseibacillus paracasei; assay: Antibacterial activity against Lacticaseibacillus paracasei subsp.paracasei ATCC25302 assessed as bacterial growth inhibition incubated for overnight by visual analysis; type: functional; settings: subsp. paracasei ATCC 25302
[12] = system: RAW264.7; assay: Antiinflammatory activity in mouse RAW 264.7 cells assessed as inhibition of LPS-induced NO production at 10 uM pretreated for 1 hr followed by LPS stimulation and further incubated for 24 hrs by griess reagent based assay; type: functional, cell-based; settings: time 25.0 hrs
[13] = system: Acinetobacter baumannii; assay: Antibacterial activity against Acinetobacter baumannii harboring LPS-deficient mutant lpxC assessed as bacterial growth inhibition incubated for overnight by visual analysis; type: functional
[14] = system: Acinetobacter baumannii; assay: Antibacterial activity against Acinetobacter baumannii assessed as bacterial growth inhibition incubated for overnight by visual analysis; type: functional
[15] = system: Bacillus subtilis; assay: Antibacterial activity against Bacillus subtilis NRS-231 assessed as bacterial growth inhibition incubated for 18 hrs; type: functional
[16] = system: Escherichia coli; assay: Antibacterial activity against Escherichia coli ATCC 25922 assessed as bacterial growth inhibition incubated for 18 hrs; type: functional
[17] = system: Staphylococcus aureus; assay: Antibacterial activity against methicillin-resistant Staphylococcus aureus ATCC 33591 assessed as bacterial growth inhibition incubated for 18 hrs; type: functional
[18] = system: Acinetobacter baumannii; assay: Synergistic antibacterial activity against Acinetobacter baumannii assessed as potentiation of colistin-induced antibacterial effect by measuring colistin MIC at 0.32 to 84 ug/ml incubated for 24 hrs by checker board assay (reference value: 0.2 ug/ml); type: functional; settings: dose 0.32-84 µg/ml
[19] = system: Escherichia coli; assay: Synergistic antibacterial activity against wild type Escherichia coli MG1655 assessed as potentiation of colistin-induced antibacterial effect by measuring […] in colistin MIC at 0.32 to 84 ug/ml incubated for 24 hrs by checker board assay relative to control; type: functional; settings: dose 0.32-84 µg/ml
[20] = system: Escherichia coli; assay: Synergistic antibacterial activity against wild type Escherichia coli MG1655 assessed as potentiation of colistin-induced antibacterial effect by measuring colistin MIC at 0.32 to 84 ug/ml incubated for 24 hrs by checker board assay (reference value: 2.5 ug/ml); type: functional; settings: dose 0.32-84 µg/ml
[21] = system: Acinetobacter baumannii; assay: Synergistic antibacterial activity against Acinetobacter baumannii assessed as potentiation of colistin-induced antibacterial effect by measuring […] in colistin MIC at 0.32 to 84 ug/ml incubated for 24 hrs by checker board assay relative to control; type: functional; settings: dose 0.32-84 µg/ml

| SMILES | Activity [1] | Activity [2] | Activity [3] | Activity [4] | MIC [5] | MIC [6] | Activity [7] | Activity [8] | Activity [9] | MIC [10] | MIC [11] | inhibition [12] | MIC [13] | MIC [14] | also measured |
| --- | --- | --- | --- | --- | --- | --- | --- | --- | --- | --- | --- | --- | --- | --- | --- |
| CC(=O)C(C)NCCc1c[nH]c2ccccc12 (stereo not drawn) | inactive | Non-Toxic | inactive | Non-Toxic | 12 µg/mL and 50 µM | > 100 µM | inactive | Non-Toxic | inactive | 12 µg/mL and 50 µM | 6 µg/mL and 25 µM | – | – | – | – |
| CCCc1n(CCC(C)C)c(C)c(C)[n+]1CCc1c[nH]c2ccccc12 | inactive | Non-Toxic | inactive | Non-Toxic | > 100 µM | > 100 µM | inactive | Non-Toxic | inactive | > 100 µM | 9 µg/mL and 25 µM | Active | 9 µg/mL and 25 µM | > 100 µM | – |
| NCCc1c[nH]c2ccccc12 [TRYPTAMINE] | inactive | Non-Toxic | inactive | Non-Toxic | – | – | inactive | Non-Toxic | inactive | – | – | – | – | – | – |
| O=c1[nH]cc(F)c(=O)[nH]1 [FLUOROURACIL] | – | Toxic | – | Toxic | – | – | – | Toxic | – | – | – | – | – | – | – |
| Cc1c(C)[n+](CCc2c[nH]c3ccccc23)cn1CCc1c[nH]c2ccccc12 | inactive | Non-Toxic | inactive | Non-Toxic | > 100 µM | > 100 µM | inactive | Non-Toxic | inactive | > 100 µM | 19 µg/mL and 50 µM | – | 38 µg/mL and 100 µM | > 100 µM | – |
| Cc1c(C)[n+](CCc2c[nH]c3ccccc23)c(C)n1CCc1c[nH]c2ccccc12 | inactive | Non-Toxic | inactive | Non-Toxic | 20 µg/mL and 50 µM | > 100 µM | inactive | Non-Toxic | inactive | > 100 µM | 20 µg/mL and 50 µM | – | 40 µg/mL and 100 µM | > 100 µM | MIC [15]: > 50 µM; MIC [16]: > 50 µM; MIC [17]: > 50 µM |
| Cc1c(C)[n+](CCc2c[nH]c3ccccc23)cn1CCc1ccccc1 | inactive | Non-Toxic | inactive | Non-Toxic | – | – | inactive | Non-Toxic | inactive | – | > 34 µg/mL and > 100 µM | – | – | – | – |
| CC(=O)c1cc(C)c(C)n1CCc1c[nH]c2ccccc12 | inactive | Non-Toxic | inactive | Non-Toxic | – | – | inactive | Non-Toxic | inactive | – | – | Active | – | – | – |
| Cc1c(C)[n+](CCc2c[nH]c3ccccc23)c(C)n1CCc1ccccc1 | inactive | Non-Toxic | inactive | Non-Toxic | – | – | inactive | Non-Toxic | inactive | – | > 36 µg/mL and > 100 µM | inactive | – | – | – |
| CCCc1n(CCc2c[nH]c3ccccc23)c(C)c(C)[n+]1CCc1c[nH]c2ccccc12 | inactive | Non-Toxic | inactive | Non-Toxic | 1.3 µg/mL and 3.13 µM | > 100 µM | inactive | Non-Toxic | inactive | 1.3 µg/mL and 3.13 µM | 0.7 µg/mL and 1.56 µM | – | 2.6 µg/mL and 6.25 µM | > 100 µM | MIC [18]: 0.05 µg/mL; fold change (FC) [19]: 8; MIC [20]: 0.313 µg/mL; fold change (FC) [21]: 4 |
| CCCc1c(C)[n+](CCc2c[nH]c3ccccc23)c(CCC)n1CCc1c[nH]c2ccccc12 | Active | Non-Toxic | Active | Non-Toxic | 11 µg/mL and 25 µM | > 100 µM | Active | Non-Toxic | Active | 11 µg/mL and 25 µM | 6 µg/mL and 12.5 µM | Active | 11 µg/mL and 25 µM | > 100 µM | – |
| CC(=O)NCCc1ccccc1 | inactive | Non-Toxic | inactive | Non-Toxic | – | – | inactive | Non-Toxic | inactive | – | – | – | – | – | – |
| Cc1c(C)[n+](CCc2c[nH]c3ccccc23)c(CC(C)C)n1CCc1c[nH]c2ccccc12 | inactive | Non-Toxic | inactive | Non-Toxic | > 100 µM | > 100 µM | inactive | Non-Toxic | inactive | > 100 µM | 22 µg/mL and 50 µM | inactive | 22 µg/mL and 50 µM | > 100 µM | – |
| CCCC(=O)C(C)NCCc1c[nH]c2ccccc12 (stereo not drawn) | inactive | Non-Toxic | inactive | Non-Toxic | – | – | inactive | Non-Toxic | inactive | – | – | – | – | – | – |
